Species: Rattus norvegicus
Assay: DrugMatrix - Regimen: Daily Repeat
Assay type: toxicity, organism-based, Sprague-Dawley
Parameters: regimen Daily Repeat, gender Male, age 6-8 weeks
Conditions: in vivo, iv, vehicle 100 % SALINE; for ABSOLUTE BASOPHIL / ABSOLUTE EOSINOPHIL / ABSOLUTE LYMPHOCYTE / ABSOLUTE MONOCYTE / ABSOLUTE SEGMENTED NEUTROPHIL / BASOPHIL / EOSINOPHIL / ERYTHROCYTE COUNT / HEMATOCRIT / HEMOGLOBIN / LEUKOCYTE COUNT / LYMPHOCYTE / MEAN CORPUSCULAR HEMOGLOBIN / MEAN CORPUSCULAR HEMOGLOBIN CONCENTRATION / MEAN CORPUSCULAR VOLUME / MONOCYTE / NEUTROPHIL / NUCLEATED RED BLOOD CELLS / PLATELET COUNT: tissue Blood; for ALANINE AMINOTRANSFERASE / ALBUMIN / ALKALINE PHOSPHATASE / ASPARTATE AMINOTRANSFERASE / BLOOD UREA NITROGEN / CARBON DIOXIDE / CHLORIDE / CHOLESTEROL / CREATINE PHOSPHOKINASE / CREATININE / GLUCOSE / LACTATE DEHYDROGENASE / LIPASE / PHOSPHORUS / POTASSIUM / SODIUM / TOTAL BILIRUBIN / TOTAL PROTEIN / URIC ACID: tissue Plasma
[1] = 5 mg/kg, 72 h, dose level Low, time 3 day
[2] = 5 mg/kg, 120 h, dose level Low, time 5 day
[3] = 30 mg/kg, 72 h, dose level High, time 3 day
[4] = 30 mg/kg, 120 h, dose level High, time 5 day

CNC1(c2ccccc2Cl)CCCCC1=O (configuration not stated) [KETAMINE]
ABSOLUTE BASOPHIL [1]: 0 CELLS/uL | ABSOLUTE EOSINOPHIL [1]: 51.33 CELLS/uL | ABSOLUTE LYMPHOCYTE [1]: 14067.33 CELLS/uL | ABSOLUTE MONOCYTE [1]: 102.67 CELLS/uL | ABSOLUTE SEGMENTED NEUTROPHIL [1]: 1912 CELLS/uL | BASOPHIL [1]: 0% | EOSINOPHIL [1]: 0.33% | ERYTHROCYTE COUNT [1]: 5.81 x10E6/uL | HEMATOCRIT [1]: 36.67% | HEMOGLOBIN [1]: 14.57 G/DL | LEUKOCYTE COUNT [1]: 16.13 x10E3/uL | LYMPHOCYTE [1]: 87% | MEAN CORPUSCULAR HEMOGLOBIN [1]: 25.1 pg | MEAN CORPUSCULAR HEMOGLOBIN CONCENTRATION [1]: 39.73 G/DL | MEAN CORPUSCULAR VOLUME [1]: 63.13 fL | MONOCYTE [1]: 0.67% | NEUTROPHIL [1]: 12% | NUCLEATED RED BLOOD CELLS [1]: 0 /100WBC | PLATELET COUNT [1]: 1224 x10E3/uL | ALANINE AMINOTRANSFERASE [1]: 65.67 u/L | ALBUMIN [1]: 4.37 G/DL | ALKALINE PHOSPHATASE [1]: 476.33 u/L | ASPARTATE AMINOTRANSFERASE [1]: 112 u/L | BLOOD UREA NITROGEN [1]: 16.67 mg/dL | CARBON DIOXIDE [1]: 24.33 mmol/L | CHLORIDE [1]: 102.33 MEQ/L | CHOLESTEROL [1]: 77 mg/dL | CREATINE PHOSPHOKINASE [1]: 659.67 u/L | CREATININE [1]: 0.19 mg/dL | GLUCOSE [1]: 151 mg/dL | LACTATE DEHYDROGENASE [1]: 281 u/L | LIPASE [1]: 8.67 u/L | PHOSPHORUS [1]: 13.03 mg/dL | POTASSIUM [1]: 6.82 MEQ/L | SODIUM [1]: 147.17 MEQ/L | TOTAL BILIRUBIN [1]: 0.2 mg/dL | TOTAL PROTEIN [1]: 6.1 G/DL | URIC ACID [1]: 1.77 mg/dL | ABSOLUTE BASOPHIL [2]: 0 CELLS/uL | ABSOLUTE EOSINOPHIL [2]: 0 CELLS/uL | ABSOLUTE LYMPHOCYTE [2]: 13962.33 CELLS/uL | ABSOLUTE MONOCYTE [2]: 431.67 CELLS/uL | ABSOLUTE SEGMENTED NEUTROPHIL [2]: 1839.33 CELLS/uL | BASOPHIL [2]: 0% | EOSINOPHIL [2]: 0% | ERYTHROCYTE COUNT [2]: 5.58 x10E6/uL | HEMATOCRIT [2]: 35.2% | HEMOGLOBIN [2]: 13.8 G/DL | LEUKOCYTE COUNT [2]: 16.23 x10E3/uL | LYMPHOCYTE [2]: 86% | MEAN CORPUSCULAR HEMOGLOBIN [2]: 24.77 pg | MEAN CORPUSCULAR HEMOGLOBIN CONCENTRATION [2]: 39.27 G/DL | MEAN CORPUSCULAR VOLUME [2]: 63.1 fL | MONOCYTE [2]: 2.67% | NEUTROPHIL [2]: 11.33% | NUCLEATED RED BLOOD CELLS [2]: 0 /100WBC | PLATELET COUNT [2]: 1165.33 x10E3/uL | ALANINE AMINOTRANSFERASE [2]: 62.33 u/L | ALBUMIN [2]: 4 G/DL | ALKALINE PHOSPHATASE [2]: 365.67 u/L | ASPARTATE AMINOTRANSFERASE [2]: 75.67 u/L | BLOOD UREA NITROGEN [2]: 16 mg/dL | CARBON DIOXIDE [2]: 23.67 mmol/L | CHLORIDE [2]: 103 MEQ/L | CHOLESTEROL [2]: 71 mg/dL | CREATINE PHOSPHOKINASE [2]: 194 u/L | CREATININE [2]: 0.14 mg/dL | GLUCOSE [2]: 158.33 mg/dL | LACTATE DEHYDROGENASE [2]: 81 u/L | LIPASE [2]: 8.33 u/L | PHOSPHORUS [2]: 11.53 mg/dL | POTASSIUM [2]: 6.9 MEQ/L | SODIUM [2]: 144.5 MEQ/L | TOTAL BILIRUBIN [2]: 0.2 mg/dL | TOTAL PROTEIN [2]: 6.03 G/DL | URIC ACID [2]: 1.43 mg/dL | ABSOLUTE BASOPHIL [3]: 0 CELLS/uL | ABSOLUTE EOSINOPHIL [3]: 0 CELLS/uL | ABSOLUTE LYMPHOCYTE [3]: 14382.67 CELLS/uL | ABSOLUTE MONOCYTE [3]: 155.33 CELLS/uL | ABSOLUTE SEGMENTED NEUTROPHIL [3]: 1995.33 CELLS/uL | BASOPHIL [3]: 0% | EOSINOPHIL [3]: 0% | ERYTHROCYTE COUNT [3]: 5.41 x10E6/uL | HEMATOCRIT [3]: 34.6% | HEMOGLOBIN [3]: 13.7 G/DL | LEUKOCYTE COUNT [3]: 16.53 x10E3/uL | LYMPHOCYTE [3]: 87.33% | MEAN CORPUSCULAR HEMOGLOBIN [3]: 25.3 pg | MEAN CORPUSCULAR HEMOGLOBIN CONCENTRATION [3]: 39.6 G/DL | MEAN CORPUSCULAR VOLUME [3]: 63.93 fL | MONOCYTE [3]: 1% | NEUTROPHIL [3]: 11.67% | NUCLEATED RED BLOOD CELLS [3]: 0 /100WBC | PLATELET COUNT [3]: 1095 x10E3/uL | ALANINE AMINOTRANSFERASE [3]: 62.67 u/L | ALBUMIN [3]: 4.23 G/DL | ALKALINE PHOSPHATASE [3]: 372.33 u/L | ASPARTATE AMINOTRANSFERASE [3]: 96.67 u/L | BLOOD UREA NITROGEN [3]: 17 mg/dL | CARBON DIOXIDE [3]: 19 mmol/L | CHLORIDE [3]: 101.67 MEQ/L | CHOLESTEROL [3]: 72.67 mg/dL | CREATINE PHOSPHOKINASE [3]: 366.67 u/L | CREATININE [3]: 0.23 mg/dL | GLUCOSE [3]: 202.67 mg/dL | LACTATE DEHYDROGENASE [3]: 284.33 u/L | LIPASE [3]: 10 u/L | PHOSPHORUS [3]: 13.57 mg/dL | POTASSIUM [3]: 5.66 MEQ/L | SODIUM [3]: 144.1 MEQ/L | TOTAL BILIRUBIN [3]: 0.2 mg/dL | TOTAL PROTEIN [3]: 6 G/DL | URIC ACID [3]: 2.03 mg/dL | ABSOLUTE BASOPHIL [4]: 0 CELLS/uL | ABSOLUTE EOSINOPHIL [4]: 79.33 CELLS/uL | ABSOLUTE LYMPHOCYTE [4]: 16271.33 CELLS/uL | ABSOLUTE MONOCYTE [4]: 278 CELLS/uL | ABSOLUTE SEGMENTED NEUTROPHIL [4]: 1271.33 CELLS/uL | BASOPHIL [4]: 0% | EOSINOPHIL [4]: 0.33% | ERYTHROCYTE COUNT [4]: 5.66 x10E6/uL | HEMATOCRIT [4]: 35.67% | HEMOGLOBIN [4]: 14 G/DL | LEUKOCYTE COUNT [4]: 17.9 x10E3/uL | LYMPHOCYTE [4]: 92% | MEAN CORPUSCULAR HEMOGLOBIN [4]: 24.8 pg | MEAN CORPUSCULAR HEMOGLOBIN CONCENTRATION [4]: 39.27 G/DL | MEAN CORPUSCULAR VOLUME [4]: 63.03 fL | MONOCYTE [4]: 1.33% | NEUTROPHIL [4]: 6.33% | NUCLEATED RED BLOOD CELLS [4]: 0 /100WBC | PLATELET COUNT [4]: 1154.33 x10E3/uL | ALANINE AMINOTRANSFERASE [4]: 51 u/L | ALBUMIN [4]: 4.2 G/DL | ALKALINE PHOSPHATASE [4]: 328.67 u/L | ASPARTATE AMINOTRANSFERASE [4]: 76.67 u/L | BLOOD UREA NITROGEN [4]: 16.33 mg/dL | CARBON DIOXIDE [4]: 22.67 mmol/L | CHLORIDE [4]: 105 MEQ/L | CHOLESTEROL [4]: 69.67 mg/dL | CREATINE PHOSPHOKINASE [4]: 264.33 u/L | CREATININE [4]: 0.2 mg/dL | GLUCOSE [4]: 179.33 mg/dL | LACTATE DEHYDROGENASE [4]: 119.67 u/L | LIPASE [4]: 8.67 u/L | PHOSPHORUS [4]: 12.4 mg/dL | POTASSIUM [4]: 6.35 MEQ/L | SODIUM [4]: 146.23 MEQ/L | TOTAL BILIRUBIN [4]: 0.17 mg/dL | TOTAL PROTEIN [4]: 6.1 G/DL | URIC ACID [4]: 1.3 mg/dL
